Measurements as given in the NIST ThermoML archive (doi:10.1016/j.jct.2019.03.007).
Where “and” joins values, the source holds several entries; their conditions need not be identical. Equal values may be shown once. ± gives the expanded uncertainty stated by the source.

How the values were obtained:
[1] = for molar volume: 100 kPa, X-ray diffraction; for Triple point temperature: DSC
[2] = Molar enthalpy of transition or fusion; conditions: DSC

## O=[N+]([O-])[O-].O=[N+]([O-])[O-].[Ca+2] [calcium nitrate]
[1]; 298 K, Crystal 1
  molar volume: 6.616e-05 ± 5.4e-08 m3/mol and 6.614e-05 ± 5.4e-08 m3/mol
[1]; 323 K, Crystal 1
  molar volume: 6.637e-05 ± 5.4e-08 m3/mol and 6.638e-05 ± 5.4e-08 m3/mol
[1]; 348 K, Crystal 1
  molar volume: 6.658e-05 ± 5.4e-08 m3/mol
[1]; 373 K, Crystal 1
  molar volume: 6.68e-05 ± 5.4e-08 m3/mol
[1]; 398 K, Crystal 1
  molar volume: 6.702e-05 ± 5.4e-08 m3/mol and 6.703e-05 ± 5.4e-08 m3/mol
[1]; 423 K, Crystal 1
  molar volume: 6.725e-05 ± 5.4e-08 m3/mol and 6.726e-05 ± 5.4e-08 m3/mol
[1]; 448 K, Crystal 1
  molar volume: 6.748e-05 ± 5.4e-08 m3/mol and 6.749e-05 ± 5.4e-08 m3/mol
[1]; 473 K, Crystal 1
  molar volume: 6.771e-05 ± 5.4e-08 m3/mol and 6.773e-05 ± 5.4e-08 m3/mol
[1]; 498 K, Crystal 1
  molar volume: 6.794e-05 ± 5.5e-08 m3/mol and 6.797e-05 ± 5.5e-08 m3/mol
[1]; 523 K, Crystal 1
  molar volume: 6.818e-05 ± 5.5e-08 m3/mol and 6.821e-05 ± 5.5e-08 m3/mol
[1]; 548 K, Crystal 1
  molar volume: 6.845e-05 ± 5.5e-08 m3/mol and 6.842e-05 ± 5.5e-08 m3/mol
[1]; 573 K, Crystal 1
  molar volume: 6.871e-05 ± 5.5e-08 m3/mol and 6.866e-05 ± 5.5e-08 m3/mol
[1]; 598 K, Crystal 1
  molar volume: 6.9e-05 ± 5.5e-08 m3/mol and 6.89e-05 ± 5.5e-08 m3/mol
[1]; 623 K, Crystal 1
  molar volume: 6.92e-05 ± 5.5e-08 m3/mol and 6.915e-05 ± 5.5e-08 m3/mol
[1]; 648 K, Crystal 1
  molar volume: 6.945e-05 ± 5.6e-08 m3/mol and 6.94e-05 ± 5.5e-08 m3/mol
[1]; 673 K, Crystal 1
  molar volume: 6.97e-05 ± 5.6e-08 m3/mol and 6.967e-05 ± 5.6e-08 m3/mol
[1]; 698 K, Crystal 1
  molar volume: 6.994e-05 ± 5.6e-08 m3/mol and 6.992e-05 ± 5.6e-08 m3/mol
[1]; 723 K, Crystal 1
  molar volume: 7.019e-05 ± 5.6e-08 m3/mol
[1]; Crystal 1
  Triple point temperature: 823 ± 4 K
[1]; Crystal 2
  Triple point temperature: 290 ± 4 K
[2]; Crystal 1
  Molar enthalpy of transition or fusion: 7.98 ± 0.502 kcal/mol
[2]; Crystal 2
  Molar enthalpy of transition or fusion: 0.0289 ± 0.0263 kcal/mol
